A melting point compilation (Tetko et al.; mined from patent text by program, amines drawn as free bases though some values may be those of a salt)

Row | melting point | SMILES
1 | 150 to 152 °C | CCOc1ccc(-c2ccc3c(c2)C=C(C(=O)Nc2ccc(CN(C)C4CCOCC4)cc2)CCN3C)cc1
2 | 173 to 175 °C | O=C(O)Cc1nn(Cc2ccc(Br)cc2F)c(=O)c2c(F)cccc12
3 | 187 to 189 °C | O=C(Nc1ccc2nc(CN3CCCC3)ccc2c1)N1CCC(c2ccccc2)CC1
4 | 147 to 149 °C | O=C1N(C(c2ccccc2)c2ccccc2)c2cc(F)ccc2C1(O)c1cc2c(cc1O)OCC2 (stereo not given)
5 | 172 to 174 °C | O=C(O)C(=O)CC(=O)c1cn(Cc2ccccc2F)c2ccccc2c1=O
6 | 73 to 74 °C | CCCCCCCCCCC1SCCCN1C(=S)Nc1cccc(Br)c1 (stereo not given)
7 | 207 to 209 °C | O=C1CCC(N2C(=O)c3cccc(NCc4cccc(Cl)c4)c3C2=O)C(=O)N1 (stereo not given)
8 | 116 °C | N#Cc1cccc(N2Cc3ccccc3CN(C3CCNCC3)C2=O)c1
9 | 222 to 224 °C | COC(=O)c1ccc(Cn2c(C(=O)NC(N)=S)cc3cc(C)cc(C)c32)cc1
10 | 220 to 221 °C | Cc1cc(C(=O)O)ccc1N1CCOCC1
11 | 58 to 59 °C | CCCCCCCCOc1cnc(-c2ccc(C#CCCCC(C)OC(C)=O)cc2)nc1 (stereo not given)
12 | 169 to 170 °C | COc1ccc2c(c1OC)C(=O)O[C@@H]2[C@H]1c2c(c(Br)c3c(c2OC)OCO3)CCN1C
13 | 118 to 119 °C | CCOC(=O)CCCCn1c(=O)n(CCN2CCN(c3ccccc3OC)CC2)c(=O)c2sccc21
14 | 120 to 121 °C | COc1ccc(N2CCN(C(=S)C3(C)CCc4c(C)c(O)c(C)c(C)c4O3)CC2)cc1 (stereo not given)
15 | 145 °C | CCCCCCCCOc1ccc(-c2ccc(O)c(F)c2F)cc1
16 | 105 to 108 °C | CCCCC1(CCn2ccnc2)SCCS1
17 | 220 to 230 °C | Cn1ccnc1Sc1ccc(Nc2c(C#N)cnc3cc(N4CCC(N5CCCC5)CC4)c([N+](=O)[O-])cc23)cc1Cl
18 | 203 °C | NS(=O)(=O)c1cc(C(=O)O)cc(NCc2ccccc2)c1NCCc1ccccc1
19 | 143 to 144 °C | CCOC(=O)C(=O)c1oc(-n2cnc3ccccc32)nc1-c1ccc(Cl)cc1
20 | 122 to 124 °C | CC1=C(C(=O)OCCOc2ccccc2)C(c2ccccc2OC(F)F)c2c(ccnc2OC(C)C)N1 (stereo not given)
21 | 107 to 109 °C | CCCCC(=O)NC1CCN(CCNC(=O)c2nn(C(C)C)c3ccccc23)CC1
22 | 123 to 124 °C | CN(C)Cc1cc(C(N)=O)ccc1OCCN(C)Cc1ccc(Cl)cc1
23 | 140 to 142 °C | COc1ccc2c3c(c(=O)oc2c1)CN(Cc1ccccn1)CC3
24 | 145 to 146 °C | C=CCC(CC=C)n1c(CC)nc2c1c(=O)n(C)c(=O)n2-c1ccc(Cl)cc1Cl
25 | 66.4 °C | CCCCCCCCCCOc1ccc(C(=O)Oc2ccc(OC(=O)[C@@H]3O[C@@H]3CCC)cc2)cc1Cl
26 | 94 to 95 °C | CCCC(=O)c1ccc(OCCCCCC(=O)O)c(Cl)c1Cl
27 | 168 to 184 °C | CCOc1ccccc1-c1ncc(C(=O)O)c(=O)[nH]1

Row | melting point | SMILES
28 | 175 to 178 °C | COc1ccc(-c2ccc3c(c2)C=C(C(=O)Nc2ccc(CN(C)C4CCOCC4)cc2)CCS3(=O)=O)c(OC)c1
29 | 287 to 292 °C | O=C(c1ccccc1)n1c2cc(O)c(O)cc2c2cc(O)c(O)cc21
30 | 214 to 216 °C | CCc1nn(-c2ccc(F)cc2)c2cc(C3=CCC(C(=O)O)CC3)ccc12 (stereo not given)
31 | 120 to 122 °C | O=C1NC(=O)C(Cc2ccc(C(=O)CCCc3ccccc3)cc2)S1 (stereo not given)
32 | > 300 °C | O=C(CCl)Nc1ccc2ncnc(Nc3cccc(I)c3)c2c1
33 | 104 °C | OC(COc1cccc2c1SCCC2)CN1CCC(c2ccccc2)CC1 (stereo not given)
34 | 117 to 118 °C | CCOC(=O)C1=C(C)NC(=S)N(C(=O)OCC)C1c1ccccc1OC (stereo not given)
35 | 105 to 110 °C | COC(=O)C=C(Nc1cc(CCCl)c([N+](=O)[O-])cc1OCc1ccccc1)C(F)(F)F
36 | 153 to 155 °C | NCCCCCNc1ncc2ncnc(Nc3ccc(F)c(Cl)c3)c2n1
37 | 49 to 51 °C | CCCCCCCCCCCCCCCC(=O)C(O)(O)C(=O)OC(C)(C)C
38 | 99.8 to 101 °C | CCC(C)Sc1cc(C(F)(F)F)ccc1C(=O)O (stereo not given)
39 | > 270 °C | CCCC1=C(C#N)C(c2ccccc2Cl)c2c(n[nH]c2C(C)(C)C)N1 (stereo not given)
40 | 153 °C | CCCNc1nc(N)nc2c1ncn2C1CC(F)C(CO)O1 (stereo not given)
41 | 131 to 134 °C | CCOC(=O)C1Nc2ccccc2S(=O)(=O)n2cccc21 (stereo not given)
42 | 45 to 46 °C | CCOC(=O)CCCOc1ccc(C23CC4CC(CC(C4)C2)C3)cc1
43 | 116 to 118 °C | COC(=O)CCCc1cc2nc(Cl)ccc2n1S(=O)(=O)c1ccc(OC)cc1Cl
44 | > 280 °C | O=C(Nc1nccs1)c1c(C(F)(F)F)nc2ccccc2c1O
45 | 66 to 67 °C | COC(=O)c1cc2c(nc1C)C(CBr)CCCC2 (stereo not given)
46 | 156 to 157 °C | CCCCC(=O)c1c(-c2ccc3cc(O)ccc3c2)oc2ccc(Cl)cc12
47 | 98 to 99 °C | CCc1c(C(=O)c2cc(C)cc(C)c2)n(C/C=C\c2ccccc2)c(=O)[nH]c1=O
48 | 52 to 56 °C | CC(=O)CCC(=O)N1CCN(c2c(F)cc(N3CC(CNC(C)=O)OC3=O)cc2F)CC1 (stereo not given)
49 | 59 to 61 °C | CCOC(=O)C(=O)N(CCN=[N+]=[N-])N=Cc1ccccc1
50 | 59 to 60 °C | OCc1ccc(O)c(CO)c1CNCCCCCCOCCCCCc1ccco1
51 | 83 °C | O=C(CN1C(=O)c2ccccc2S1(=O)=O)OC1CCCCC1
52 | 224 to 225 °C | O=C(Cn1c(-c2ccc(Cl)cc2)nc2cccnc21)N1CCCC1
53 | 181 to 183 °C | O=C(O)c1ccc(C(=O)N2CCOCC2)nc1
54 | 210 to 211 °C | CCCCOc1nc(N)c2[nH]c(=O)n(CCCCNS(=O)(=O)c3ccc(CCC(=O)O)cc3)c2n1

Second part, the compound before the results:

Row | SMILES | melting point
55 | CC1(O)CCC2(C)C(CCC3C2CCC2(C)C(C(=O)COc4ccc([N+](=O)[O-])cc4)CCC32)C1 (stereo not given) | 169 to 172 °C
56 | O=[N+]([O-])c1ccc(S(=O)(=O)c2ccc(Cl)cc2)nc1 | 177 to 180 °C
57 | c1cc(CN2CCc3cccc(CCc4nnn[nH]4)c32)cc(OCc2ccc3ccccc3n2)c1 | 148 to 151 °C
58 | CC(=C1C(=O)N(c2cccc(C)c2)c2ccccc21)N(C)C | 96 to 99 °C
59 | O=C(c1cc(Cl)cc(Cl)c1)N1CCc2cc(S(=O)(=O)N3CCN(c4cccc(Cl)c4)CC3)ccc21 | 262 to 263 °C
60 | C=CCOc1ccc(C(=O)Oc2ccc(O[Si](C)(C)C)cc2)cc1 | 87 °C
61 | Cc1cc(CSCCN)sc1CN1CCCCC1 | 81 °C
62 | O=C(O)CC(C1CCCCC1)C1CCCCC1 | 118 to 120 °C
63 | Cn1nc(-c2ncc(Cl)cc2F)c(N)c1OC(F)F | 92 to 94 °C
64 | COc1cccc2c1CC1OC1C2 (stereo not given) | 49.5 to 50.5 °C
65 | N#Cc1c2ccccc2nc2ccc(Cl)cc12 | 208 °C
66 | Cc1ccc(Oc2c(C)c(NC(=O)CC(C)(C)C)c(C)c3c2OC(C)(C)C3)cc1 | 182 to 184 °C
67 | C=C(c1ccc(N(C)C)cc1)c1ccc(N(C)C)cc1 | 115 °C
68 | O=C(OCCc1ccccn1)Oc1ccc([N+](=O)[O-])cc1 | 125 to 127 °C
69 | O=C1c2ccccc2C(=O)N1CCc1ccc(C=Cc2ccccc2)cc1 | 212 to 215 °C
70 | N#Cc1ccc2c(c1)CCC=C2n1ccnc1 | 152 to 153 °C
71 | N#Cc1c(N2CCCCC2)cc(-c2ccc3ccc4cccc5ccc2c3c45)c2c1-c1ccccc1C2 | 114 to 116 °C
72 | O=S1CCOCC1c1cccnc1 (stereo not given) | 74 to 76 °C
73 | NS(=O)(=O)c1cccc(NC(=O)NC2N=C(c3ccccc3F)c3ccccc3N(CC(=O)N3CC4CCC(CC4)C3)C2=O)c1 (racemic) | 221 to 226 °C
74 | ON=Cc1ccc(OCc2coc(-c3ccccc3)n2)cc1 | 184 to 186 °C
75 | CS(=O)(=O)c1ccc(-n2nccc2-c2ccc(Br)cc2)cc1F | 155 to 156 °C
76 | CC1(C)N=C(c2ccccc2F)c2cc([N+](=O)[O-])cc(Cl)c2NC1=O | 142 to 143 °C
77 | COC(=O)c1cc(CO)cc([N+](=O)[O-])c1 | 76.5 to 77.5 °C

Row | SMILES | melting point
78 | N#Cc1c(O)nc2ccc([N+](=O)[O-])cc2c1O | 281 to 282 °C
79 | Cc1nc(Cn2cnc3c2c(=O)[nH]c(=O)n3C)no1 | 262 to 264 °C
80 | O=C(O)c1cccc(OCc2ccc(Cl)c(Cl)c2)c1 | 173 to 174 °C
81 | Cc1cc(C(Cl)=NNc2ccccc2)ccc1[N+](=O)[O-] | 146 to 148 °C
82 | Cc1cc(NC2=NCCN2)n(C)n1 | 167 to 169 °C
83 | Cc1cc([N+](=O)[O-])cc(C)c1Cl | 101 to 105 °C
84 | O=c1sc2cc(Cl)ccc2n1CCCCl | 131 to 132 °C
85 | CCc1c(OC)cc(C)c(C=CC(C)=CC=CC(C)=CC(=O)O)c1C | 197 to 198 °C
86 | Cc1cccc(-c2[nH]c(C(C)C)nc2-c2cccc(-c3ccccn3)c2)n1 | 97 to 100 °C
87 | CC(C1CC(c2ccc(C(F)(F)F)cc2)C1)N(O)C(N)=O (stereo not given) | 147 to 148 °C
88 | CC(C)(O)c1cccc(-c2ccc3nc(-c4ccc(Cl)cc4)c(Cl)n3c2)c1 | 172 to 173 °C
89 | NC(=O)N(O)Cc1sccc1Br | 138 to 140 °C
90 | OC1CSC(Oc2ccc(-c3ccc(N4CCCCC4)cc3)nc2)C(O)C1O (stereo not given) | 221 °C
91 | CC1Nc2cc(-c3ccc(Cl)cc3)ccc2NC1=O (stereo not given) | 228 to 230 °C
92 | O=Cc1ccc(F)c(F)c1 | 95 to 96 °C
93 | NC(=O)Nc1ccc(-c2c[nH]c(=O)cn2)cc1 | > 300 °C
94 | COc1cc(-c2cc(C(F)(F)F)nn2-c2ccc(S(C)(=O)=O)cc2)ccc1-c1cscn1 | 164 to 166 °C
95 | CSc1c(S(N)(=O)=O)ccn1C | 135 to 137 °C
96 | Cc1ccccc1NC(=O)c1ccccc1C(c1ccc(O)cc1)c1ccc(O)cc1 | 267 to 269 °C
97 | CCOC(=O)c1csc(N2N=C(c3ccc([N+](=O)[O-])cc3)c3cc4c(cc3CC2C)OCO4)n1 (stereo not given) | 242 to 243 °C
98 | CCCCCCCCC(SCCCCCC)C(=O)Nc1c(SC)cc(C)nc1SC (stereo not given) | 75 to 76.5 °C
99 | COc1ccc2c(c1)S(=O)(=O)NC(C)N2 (stereo not given) | 208 to 218 °C
100 | COc1cccc(-c2cc(=O)c3ccccc3[nH]2)c1SCc1ccccc1 | > 250 °C
